From US7112680B2, “Heterocyclic hydrazones for use as anti-cancer agents” (Austria Wirtschaftsservice Gesellschaft MIT Beschrankter …, priority 2000, dated 2006)
Like-named read-outs stand apart in the source and are kept apart here.

Legend:
[1] = tested on: HeLa (epitheloid cervix carcinoma); experiment: Inhibition of tumor cell growth, SRB-assay, HeLa; format: cell-based, human
[2] = tested on: HT-29 (colon adenocarcinoma); experiment: Inhibition of tumor cell growth, SRB-assay, HT-29; format: cell-based, human
Protocol: (§1) The KB cell lines were grown in Dulbecco's modified Eagle's medium (4,5 g glucose/l). To the cultures of KB-C1 cells 1 μg of colchicine/ml, and to the hydroxyurea-resistant KB-HU cells 1 mM hydroxyurea was added every other week. […] 3,000 - 10,000 cells in 200 μl medium were seeded per well into 96-well plates. […] Approximately 10,000 cells per 100 μl were seeded in 96-well plates. […] The substances were dissolved in dimethylsulfoxide (DMSO). […] Subsequently, the samples were fixed, washed, and the absorption was determined by a microplate reader.

[3] = tested on: KB-3-1 (human oral epidermoid carcinoma); experiment: Inhibition of tumor cell growth, SRB-assay, KB-3-1; format: cell-based
Protocol: (§2) In order to obtain information about the growth-inhibiting action on tumor cells, the inhibition of the growth of the following human tumor cells was determined: Burkitt's lymphoma (CA 46, ATCC No. CRL 1648), CCRF-CEM (acute lymphoblastic leukemia, ATCC No. CCL 119), K562 (chronic myelogenous leukemia, ATTC No. CCL 243), HeLa (epitheloid cervix carcinoma, ATCC No. CCL 2), MEXF 276L (melanoma), HT-29 (colon adenocarcinoma, ATCC No. HTB 38), KB-3-1 (human oral epidermoid carcinoma, CTCC No. CCL 17), KB-HU hydroxyurea-resistant, multidrug-resistant KB-C1 cells (Akiyama et al, Cell. Mol Genet., 11:117–126, 1985). Burkitt's, CCRF-CEM, HeLa and MEXF 276L cells were grown in RPMI 1640, HT-29 cells in McCoy's 5A medium. The KB cell lines were grown in Dulbecco's modified Eagle's medium (4,5 g glucose/l). To the cultures of KB-C1 cells 1 μg of colchicine/ml, and to the hydroxyurea-resistant KB-HU cells 1 mM hydroxyurea was added every other week. The media were supplemented with 10% fetal calf serum (except Burkitt's lymphoma cells with 15%), 2 mM glutamine, 50 units/ml penicillin and 50 μg/ml streptomycin. Inhibition of growth of HeLa, HT-29, KB and MEXF 276L cells was detected by the SRB-assay (Skehan et al, J. Natl Cancer Inst., 82:1107–1112, 1990). 3,000 - 10,000 cells in 200 μl medium were seeded per well into 96-well plates. Dose-response curves for CCRF-CEM and Burkitt's lymphoma cells were effected by an MTT-assay (Mosman, J. Immunol Methods, 65:55–63, 1983) from Boehringer Mannheim, Mannheim, Germany. Approximately 10,000 cells per 100 μl were seeded in 96-well plates. After an initial incubation of four hours, various substance concentrations were added, and the cells were incubated at 37° C. in a water-saturated atmosphere of 95% air and 5% CO2 for 72 hours. The substances were dissolved in dimethylsulfoxide (DMSO). The concentration of DMSO was 0.5%, and this was not toxic to the cells. Subsequently, the samples were fixed, washed, and the absorption was determined by a microplate reader.

[4] = tested on: KB-HU hydroxyurea-resistant cells; experiment: Inhibition of tumor cell growth, SRB-assay, KB-HU; format: cell-based, human
Protocol: as §2

[5] = tested on: multidrug-resistant KB-C1 cells; experiment: Inhibition of tumor cell growth, SRB-assay, KB-C1; format: cell-based, human
Protocol: as §2

[6] = tested on: Burkitt's lymphoma (CA 46, ATCC No. CRL 1648); experiment: Inhibition of tumor cell growth, MTT-assay, Burkitt's lymphoma; format: cell-based, human
Protocol: as §1

[7] = tested on: human tumor grafts (cell lines of FIG. 1); experiment: Colony forming assay (two-layer soft agar); format: cell-based
Protocol: An excellent correlation of drug response in patients and the colony forming assay has been found (Scholz et al, Eur. J. Cancer 25:901–905, 1990). Solid human tumors were grown as grafts in nude mice, removed from the latter, mechanically comminuted and subsequently incubated in an enzyme cocktail consisting of collagenase (1.2–1.8 U/ml), DNAse (375 U/ml) and hyaluronidase (29 U/ml) in RPMI 1640 medium at 37° C. for 30 minutes. The cell mixture was passed through sieves of 200 μm and 50 μm mesh size and washed thereafter twice with PBS (phosphate buffered saline). The percentage of live cells was determined using a Neubauer counting chamber and trypan blue staining.
The colony forming assay was performed according to a two-layer agar technique introduced and modified by Hamburger and Salmon (Hamburger and Salmon, Science, 197:461–463, 1977). The bottom layer consisted of 0.2 ml of Iscoves's Modified Dulbecco's medium with 20% fetal calf serum and 0.75% agar. 8×10^3 to 1.6×10^4 cells were added to the same medium and 0.4% agar and plated in 24-multiwell plates onto the base layer. One day after the plating (with continuous exposure), the substances were added in 0.2 ml medium. Each plate included six controls containing the solvent only, and the treated groups contained 6 concentrations of the substances, each in triplicate. Cultures were incubated at 37° C. and 7% CO2 in a water-saturated atmosphere for 3 to 6 days, depending on the doubling time of the tumor cells. At the time of maximum colony formation with a size of […], counts were performed with an automatic image analysis system. 24 h prior to counting, live colonies were stained with a sterile aqueous solution of 2-(4-iodophenyl)-3-(4-nitrophenyl)-5-phenyltetrazolium chloride (1 mg/ml, 100 μl/well). The results of the tests are given in FIG. 1, and in the following Table 5, respectively. […] Columns pointing towards the right show a slighter than average activity.

[8] = Table 1, 72 hours, read-out: IC50 HeLa (converted)
[9] = Table 1, 72 hours, read-out: IC50 HT-29 (converted)
[10] = Table 1, 72 hours, read-out: IC50 KB-3-1
[11] = Table 1, 72 hours, read-out: IC50 KB-HU
[12] = Table 1, 72 hours, read-out: IC50 KB-Cl
[13] = Table 4, 72 hours, read-out: In vitro-activity against human tumor cell lines, Burkitts
[14] = Table 4, 72 hours, read-out: In vitro-activity against human tumor cell lines, HeLa
[15] = Table 4, 72 hours, read-out: In vitro-activity against human tumor cell lines, HT-29
[16] = Table 4, 72 hours, read-out: In vitro-activity against human tumor cell lines, KB-3-1
[17] = Table 4, 72 hours, read-out: In vitro-activity against human tumor cell lines, KB-HU
[18] = Table 4, 72 hours, read-out: In vitro-activity against human tumor cell lines, KB-C1
[19] = Table 1, 72 hours, read-out: IC50 Burkitts
[20] = mean values of all cell lines tested in FIG. 1, continuous exposure 3 to 6 days

| Structure (SMILES) | IC50 [1, 8] | IC50 [2, 9] | IC50 [5, 12] | IC50 [6, 13] | IC50 [1, 14] | IC50 [2, 15] | IC50 [3, 16] | IC50 [4, 17] | IC50 [5, 18] | further results |
| --- | --- | --- | --- | --- | --- | --- | --- | --- | --- | --- |
| CCCC(=NNc1nc2ccccc2[nH]1)c1ccccn1 [Ia-11] | 57 nM | 200 nM | 830 nM |  |  |  |  |  |  | IC50 [3, 10]: 500 nM; IC50 [4, 11]: 130 nM |
| CC(=NNc1nc2ccccc2n1C)c1ncccc1-c1ccccc1 [Id-14] |  |  |  | 10 nM | 70 nM | 70 nM | 550 nM | 700 nM | 1420 nM |  |
| Cn1c(NN=Cc2ccccn2)nc2ccccc21 [Ia-2] | 80 nM | 270 nM |  |  |  |  |  |  |  | IC50 [6, 19]: 30 nM |
| CC(=NNc1nc2ccccc2n1C)c1ncccc1Cl [Id-3] |  |  |  | 4 nM | 250 nM | 540 nM | 310 nM | 180 nM | 300 nM |  |
| CC(C)(C)C(=NNc1nc2ccccc2[nH]1)c1ccccn1 [Ia-19] | > 100000 nM | > 100000 nM | 92000 nM |  |  |  |  |  |  |  |
| CC(=NNc1nc2ccccc2n1C)c1cccc(C)n1 [Id-10] |  |  |  | 110 nM | 380 nM | 800 nM | 490 nM | 2230 nM | 1800 nM |  |
| CC(C)C(=NNc1nc2ccccc2[nH]1)c1ccccn1 [Ia-15] | 21 nM | 520 nM | 1980 nM |  |  |  |  |  |  | IC50 [3, 10]: 700 nM; IC50 [4, 11]: 1 nM |
| CC(=NNc1nc2ccccc2n1C)c1cccc(Br)n1 [Id-6] |  |  |  | 2490 nM | 3250 nM | 3150 nM | 1690 nM | 3890 nM | 2130 nM |  |
| CC(=NNc1nc2ccccc2n1C)c1ccccn1 [Ia-5] | 5.4 nM | 50 nM | 48 nM |  |  |  |  |  |  | IC50 [6, 19]: 4.3 nM; IC50 [3, 10]: 44 nM; IC50 [4, 11]: 52 nM |
| CC(=NNc1nc2ccccc2n1C)c1cc(C)ccn1 [Id-8] |  |  |  |  |  |  | 30 nM | 20 nM | 100 nM | tumor type selectivity ([7]; colony forming assay, IC70 pattern, FIG. 1): selectivity for colon, breast, ovarian, and uterus tumors; IC50 [7, 20]: 102 nM; IC90 [7, 20]: 2380 nM; Mean IC70 [7, 20]: 317 nM |
| CC(=NNc1nc2ccccc2n1C)c1ncccc1C [Id-7] |  |  |  |  |  |  | 260 nM | 460 nM | 160 nM |  |
